Data reported in ChEMBL document CHEMBL5532643, “Design and synthesis of etrasimod derivatives as potent antibacterial agents against Gram-positive bacteria” (Eur J Med Chem, 2024).
In brackets after ≈: the same amount, converted by molar mass. Several values for one entry are separate records, joined by “and”; a condition that tells them apart may be missing. Equal values may be shown once. Activity calls are given as the source filed them. The calls are words filed in the database; no cut-off is given here.

What was measured:
Staphylococcus aureus [1] = assay: Antibiofilm activity against Staphylococcus aureus ATCC 25923 assessed as inhibition of biofilm viability at 100 uM incubated for 18 to 20 hrs by resazurin staining based assay; format: functional; conditions: time 18-20 hrs
Enterococcus faecalis [2] = assay: Antibacterial activity against Enterococcus faecalis ATCC 29212 assessed as reduction in bacterial growth incubated for 18 to 20 hrs by broth microdilution assay; format: functional; conditions: time 18-20 hrs
Enterococcus faecium = assay: Antibacterial activity against vancomycin-resistant Enterococcus faecium ATCC 700221 assessed as reduction in bacterial growth incubated for 18 to 20 hrs by broth microdilution assay; format: functional; conditions: time 18-20 hrs
Staphylococcus aureus [3] = assay: Antibacterial activity against […] Staphylococcus aureus ATCC 43300 assessed as reduction in bacterial growth incubated for 18 to 20 hrs by broth microdilution assay; format: functional; conditions: time 18-20 hrs
Enterococcus faecalis [4] = assay: Antibacterial activity against vancomycin-resistant Enterococcus faecalis ATCC 51575 assessed as reduction in bacterial growth incubated for 18 to 20 hrs by broth microdilution assay; format: functional; conditions: time 18-20 hrs
Staphylococcus aureus [5] = assay: Antimicrobial activity against methicillin-resistant Staphylococcus aureus ATCC 43300 infected in Caenorhabditis elegans AU37 assessed as reduction in bacterial burden at 20 uM incubated for 18 hrs; format: functional; set-up: scale not given: the % may be the effect or the level left
[6] = test system: Staphylococcus epidermidis; assay: Antibacterial activity against […] Staphylococcus epidermidis RP62A assessed as reduction in bacterial growth incubated for 18 to 20 hrs by broth microdilution assay; format: functional; conditions: time 18-20 hrs
[7] = test system: Staphylococcus epidermidis; assay: Antibacterial activity against Staphylococcus epidermidis RP62A assessed as reduction in bacterial growth incubated for 18 to 20 hrs by broth microdilution assay; format: functional; conditions: time 18-20 hrs
Cell membrane [8] = assay: Induction of cell membrane permeability in Staphylococcus aureus ATCC 25923 assessed as increase in fluorescence intensity at 4 times MIC incubated for 30 mins by PI staining based analysis; format: cell membranes
Staphylococcus aureus [9] = assay: Antibacterial activity against Staphylococcus aureus ATCC 25923 assessed as reduction in bacterial growth incubated for 18 to 20 hrs by broth microdilution assay; format: functional; conditions: time 18-20 hrs
Staphylococcus aureus [10] = assay: Antibiofilm activity against Staphylococcus aureus ATCC 25923 assessed as inhibition of biofilm biomass at 100 uM incubated for 18 to 20 hrs by crystal violet staining based assay; format: functional; conditions: time 18-20 hrs
Staphylococcus aureus [11] = assay: Antimicrobial activity against Staphylococcus aureus ATCC 25923 infected in Caenorhabditis elegans AU37 assessed as reduction in bacterial burden at 20 uM incubated for 18 hrs; format: functional; set-up: scale not given: the % may be the effect or the level left
Staphylococcus aureus [12] = assay: Antibacterial activity against Staphylococcus aureus ATCC 43300 assessed as reduction in bacterial growth incubated for 18 to 20 hrs by broth microdilution assay; format: functional; conditions: time 18-20 hrs
Staphylococcus aureus [13] = assay: Drug resistance, ratio of MIC for methicillin-resistant Staphylococcus aureus after 20 days exposure to MIC for methicillin-resistant Staphylococcus aureus during first exposure; format: functional; conditions: time 20 day
Staphylococcus aureus [14] = assay: Drug resistance, ratio of MIC for Staphylococcus aureus ATCC 25923 after 20 days exposure to MIC for Staphylococcus aureus ATCC 25923 during first exposure; format: functional; conditions: time 20 day
Cell membrane [15] = assay: Induction of cell membrane permeability in Staphylococcus aureus ATCC 25923 assessed as increase in fluorescence intensity incubated for 30 mins by PI staining based analysis; format: cell membranes
Staphylococcus aureus [16] = assay: Antibiofilm activity against Staphylococcus aureus ATCC 25923 assessed as reduction in biofilm biomass at 100 uM incubated for 18 to 20 hrs by crystal violet staining based assay; format: functional; set-up: scale not given: the % may be the effect or the level left; conditions: time 18-20 hrs
Staphylococcus aureus [17] = assay: Antibacterial activity against Staphylococcus aureus ATCC 25923 assessed as inhibition of bacterial growth at 40 uM incubated for 18 to 24 hrs by broth microdilution assay relative to control; format: functional; conditions: time 18-24 hrs
[18] = Hemolytic activity in mouse RBC assessed as hemolysis at 125 uM incubated for 1 hr; format: toxicity, cell-based, Erythrocyte; conditions: mouse red blood cells (erythrocytes), read-out: Activity
[19] = Cytotoxicity against human THP-1 cells assessed as reduction in cell viability incubated for 24 hrs by resazurin staining based analysis; format: toxicity
[20] = Hemolytic activity in mouse RBC assessed as hemolysis at 250 uM incubated for 1 hr; format: toxicity, cell-based, Erythrocyte; conditions: mouse red blood cells (erythrocytes), read-out: Activity
Cell membrane [21] = assay: Induction of cytoplasmic membrane depolarization in Staphylococcus aureus ATCC 25923 assessed as increase in fluorescence intensity at 4 times MIC measured for 30 mins by DiSC3(5) dye based fluorescence method; format: cell membranes
THP-1 = assay: Cytotoxicity against human THP-1 cells assessed as reduction in cell viability at 50 uM incubated for 24 hrs by resazurin staining based analysis relative to control; format: toxicity; conditions: thp-1, 24 h
Pseudomonas aeruginosa = assay: Antibacterial activity against Pseudomonas aeruginosa ATCC 15442 assessed as reduction in bacterial growth incubated for 18 to 20 hrs by broth microdilution assay; format: functional; conditions: time 18-20 hrs
Acinetobacter baumannii = assay: Antibacterial activity against Acinetobacter baumannii NCTC 13423 assessed as reduction in bacterial growth incubated for 18 to 20 hrs by broth microdilution assay; format: functional; conditions: time 18-20 hrs
Erythrocyte = assay: Hemolytic activity in mouse RBC assessed as hemolysis at 62.5 uM incubated for 1 hr; format: toxicity, cell-based
[22] = Dissociation constant, pKa of compound; format: physicochemical
[23] = Toxicity in Caenorhabditis elegans AU37 assessed as worms survival at 10 uM measured after 72 hrs

Compound: CN[C@H](CC(C)C)C(=O)N[C@H]1C(=O)N[C@@H](CC(N)=O)C(=O)N[C@H]2C(=O)N[C@H]3C(=O)N[C@H](C(=O)N[C@H](C(=O)O)c4cc(O)cc(O)c4-c4cc3ccc4O)[C@H](O)c3ccc(c(Cl)c3)Oc3cc2cc(c3O[C@@H]2O[C@H](CO)[C@@H](O)[C@H](O)[C@H]2O[C@H]2C[C@](C)(N)[C@H](O)[C@H](C)O2)Oc2ccc(cc2Cl)[C@H]1O [VANCOMYCIN]
- inhibition at 100 µM (Staphylococcus aureus [1]): 50%
- MIC (Enterococcus faecalis [2]): 2.5 µM (≈ 3.62 µg/mL)
- MIC (Enterococcus faecium): 40 µM (≈ 58 µg/mL)
- MIC (Staphylococcus aureus [3]): 1.25 µM (≈ 1.81 µg/mL)
- MIC (Enterococcus faecalis [4]): 40 µM (≈ 58 µg/mL)
- Activity (Staphylococcus aureus [5]): 61%
- MIC [6]: 2.5 µM (≈ 3.62 µg/mL)
- MIC [7]: 2.5 µM (≈ 3.62 µg/mL)
- Activity (Cell membrane [8]): inactive
- MIC (Staphylococcus aureus [9]): 2.5 µM and 3.6 µg/mL
- inhibition at 100 µM (Staphylococcus aureus [10]): 25%
- Activity (Staphylococcus aureus [11]): 72%
- MIC (Staphylococcus aureus [12]): 1.25 µM (≈ 1.81 µg/mL)

Compound: O=C(O)c1cn(C2CC2)c2cc(N3CCNCC3)c(F)cc2c1=O [CIPROFLOXACIN]
- Ratio (Staphylococcus aureus [13]): 170
- MIC (Enterococcus faecalis [2]): 2.5 µM (≈ 0.828 µg/mL)
- MIC (Enterococcus faecium): 40 µM (≈ 13.3 µg/mL)
- MIC (Enterococcus faecalis [4]): 2.5 µM (≈ 0.828 µg/mL)
- MIC [6]: 1.25 µM (≈ 0.414 µg/mL)
- MIC [7]: 0.625 µM (≈ 0.207 µg/mL)
- Ratio (Staphylococcus aureus [14]): 80
- MIC (Staphylococcus aureus [12]): 2.5 µM (≈ 0.828 µg/mL)

Compound: CC[C@H](C)[C@H](NC(=O)CN)C(=O)NCC(=O)N[C@@H](C)C(=O)N[C@H](C(=O)N[C@@H](CC(C)C)C(=O)N[C@@H](CCCCN)C(=O)N[C@H](C(=O)N[C@@H](CC(C)C)C(=O)N[C@H](C(=O)N[C@H](C(=O)NCC(=O)N[C@@H](CC(C)C)C(=O)N1CCC[C@H]1C(=O)N[C@@H](C)C(=O)N[C@@H](CC(C)C)C(=O)N[C@H](C(=O)N[C@@H](CO)C(=O)N[C@@H](Cc1c[nH]c2ccccc12)C(=O)N[C@H](C(=O)N[C@@H](CCCCN)C(=O)N[C@@H](CCCNC(=N)N)C(=O)N[C@@H](CCCCN)C(=O)N[C@@H](CCCNC(=N)N)C(=O)N[C@@H](CCC(N)=O)C(=O)N[C@@H](CCC(N)=O)C(N)=O)[C@@H](C)CC)[C@@H](C)CC)[C@@H](C)O)[C@@H](C)O)C(C)C)C(C)C
- Activity (Cell membrane [15]): Active

Compound: O=C(O)CC1CCc2c1[nH]c1ccc(OCc3cnc(C4CCCC4)c(C(F)(F)F)c3)cc21 (centres undefined)
- inhibition at 100 µM (Staphylococcus aureus [1]): > 90%
- Activity (Staphylococcus aureus [16]): 50%
- MIC (Staphylococcus aureus [9]): 20 µM and 9.2 µg/mL
- inhibition at 100 µM (Staphylococcus aureus [10]): > 90%
- inhibition at 40 µM (Staphylococcus aureus [17]): ≤ 90%

Compound: O=C(O)C[C@H]1CCc2c1[nH]c1ccc(OCc3ccc(C4CCCC4)c(C(F)(F)F)c3)cc21 [ETRASIMOD]
- inhibition at 100 µM (Staphylococcus aureus [1]): 80%
- MIC (Enterococcus faecalis [2]): 5 µM (≈ 2.29 µg/mL)
- MIC (Enterococcus faecium): 5 µM (≈ 2.29 µg/mL)
- hemolysis at 1 h, 125 µM [18]: 7%
- CC50 at 24 h [19]: 57.7 µM
- MIC (Staphylococcus aureus [3]): 5 µM (≈ 2.29 µg/mL)
- hemolysis at 1 h, 250 µM [20]: 100%
- MIC (Enterococcus faecalis [4]): 10 µM (≈ 4.57 µg/mL)
- Activity (Staphylococcus aureus [5]): 77%
- Activity (Cell membrane [21]): inactive
- MIC [6]: 5 µM (≈ 2.29 µg/mL)
- Activity (THP-1): 64%
- MIC (Pseudomonas aeruginosa): > 200 µM
- MIC (Acinetobacter baumannii): > 200 µM
- MIC [7]: 10 µM (≈ 4.57 µg/mL)
- Activity (Erythrocyte): Non-Toxic
- pKa [22]: 4
- Activity [23]: Non-Toxic
- MIC (Staphylococcus aureus [9]): 5 µM and 2.3 µg/mL
- inhibition at 100 µM (Staphylococcus aureus [10]): 20%
- Activity (Staphylococcus aureus [11]): >85%
- MIC (Staphylococcus aureus [12]): 5 µM (≈ 2.29 µg/mL)
